Data as given in PubChem BioAssay AID248 (DTP/NCI, 2004).
“And” between values parts separate entries of the source, which are not always exact repeats. Identical values can stand only once. Inconclusive results and toxic doses are left out. No stated cut-off is given here; in the data, active means T/C of 150% or more; inactive means T/C below 125%.

System: L1210 leukemia ip in BDF1 mice, survival T/C
Test: NCI In Vivo Anticancer Drug Screen. Data for tumor model L1210 Leukemia (intraperitoneal) in B6D2F1 (BDF1) mice
Conditions: endpoint: mean survival time, higher = longer survival
Summary of the method: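 Tumor was transplanted into mice, which were then dosed with test compound or vehicle alone. Survival was recorded for each group, and the treated figure was expressed relative to the control figure.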

[1] = dose: 100.0 mg/kg/injection, schedule: Q01DX001 (ip), vehicle: Klucel (hydroxypropylcellulose) (HPC)
[2] = dose: 200.0 mg/kg/injection, schedule: Q01DX001 (ip), vehicle: Klucel (hydroxypropylcellulose) (HPC)
[3] = dose: 100.0 mg/kg/injection, schedule: Q04DX002 (ip), vehicle: Klucel (hydroxypropylcellulose) (HPC)
[4] = dose: 200.0 mg/kg/injection, schedule: Q04DX002 (ip), vehicle: Klucel (hydroxypropylcellulose) (HPC)
[5] = dose: 100.0 mg/kg/injection, schedule: Q01DX009 (ip), vehicle: saline with Tween-80
[6] = dose: 200.0 mg/kg/injection, schedule: Q01DX009 (ip), vehicle: saline with Tween-80
[7] = dose: 100.0 mg/kg/injection, schedule: Q01DX009 (ip), vehicle: Klucel (hydroxypropylcellulose) (HPC)
[8] = dose: 100.0 mg/kg/injection, schedule: Q04DX003 (ip), vehicle: Klucel (hydroxypropylcellulose) (HPC)
[9] = dose: 200.0 mg/kg/injection, schedule: Q01DX009 (ip), vehicle: Klucel (hydroxypropylcellulose) (HPC)
[10] = dose: 200.0 mg/kg/injection, schedule: Q04DX003 (ip), vehicle: Klucel (hydroxypropylcellulose) (HPC)
[11] = dose: 400.0 mg/kg/injection, schedule: Q01DX009 (ip), vehicle: Klucel (hydroxypropylcellulose) (HPC)
[12] = dose: 400.0 mg/kg/injection, schedule: Q04DX003 (ip), vehicle: Klucel (hydroxypropylcellulose) (HPC)

Measured: T/C

CC(=O)OCC1OC(Sc2cccc3ccccc23)C(OC(C)=O)C(OC(C)=O)C1OC(C)=O (centres undefined)
inactive: dose: 100.0 mg/kg/injection, schedule: Q01DX001 (ip), vehicle: saline 104 % of control | dose: 200.0 mg/kg/injection, schedule: Q01DX001 (ip), vehicle: saline 93 % of control | dose: 400.0 mg/kg/injection, schedule: Q01DX001 (ip), vehicle: saline 98 % of control

CC1(C)CCCC2(C)C(O)C3CCC2C31 (centres undefined)
inactive: [1] 96 % of control | [2] 91 % of control | dose: 400.0 mg/kg/injection, schedule: Q01DX001 (ip), vehicle: Klucel (hydroxypropylcellulose) (HPC) 90 % of control

CCOC(=O)C/C(=N\Nc1ccc([N+](=O)[O-])cc1[N+](=O)[O-])c1ccccc1
inactive: dose: 100.0 mg/kg/injection, schedule: Q04DX003 (ip), vehicle: saline sonified 96 % of control | dose: 200.0 mg/kg/injection, schedule: Q04DX003 (ip), vehicle: saline sonified 96 % of control | dose: 400.0 mg/kg/injection, schedule: Q04DX003 (ip), vehicle: saline sonified 91 % of control

CN(C)/C(=C/c1ccccc1)CS(=O)(=O)N(C)C
inactive: dose: 75.0 mg/kg/injection, schedule: Q01DX001 (ip), vehicle: carboxymethylcellulose (CMC) 106 % of control | dose: 150.0 mg/kg/injection, schedule: Q01DX001 (ip), vehicle: carboxymethylcellulose (CMC) 97 % of control | dose: 300.0 mg/kg/injection, schedule: Q01DX001 (ip), vehicle: carboxymethylcellulose (CMC) 89 % of control

Cc1c(O)cccc1F
inactive: dose: 25.0 mg/kg/injection, schedule: Q04DX002 (ip), vehicle: Klucel (hydroxypropylcellulose) (HPC) 98 % of control | dose: 50.0 mg/kg/injection, schedule: Q04DX002 (ip), vehicle: Klucel (hydroxypropylcellulose) (HPC) 102 % of control | [3] 111 % of control and 120 % of control

CCCCOCC(=O)OCCCC
inactive: dose: 100.0 mg/kg/injection, schedule: Q01DX009 (ip), vehicle: saline 103 % of control | dose: 100.0 mg/kg/injection, schedule: Q04DX003 (ip), vehicle: saline with Tween-80 93 % of control | dose: 200.0 mg/kg/injection, schedule: Q01DX009 (ip), vehicle: saline 105 % of control | dose: 200.0 mg/kg/injection, schedule: Q04DX003 (ip), vehicle: saline with Tween-80 94 % of control | dose: 400.0 mg/kg/injection, schedule: Q01DX009 (ip), vehicle: saline 87 % of control | dose: 400.0 mg/kg/injection, schedule: Q04DX003 (ip), vehicle: saline with Tween-80 93 % of control

Oc1ccc(-c2n[nH]c3c2CCCc2ccccc2-3)cc1
inactive: dose: 12.5 mg/kg/injection, schedule: Q01DX001 (ip), vehicle: saline with Tween-80 101 % of control | dose: 12.5 mg/kg/injection, schedule: Q04DX003 (ip), vehicle: saline with Tween-80 103 % of control | dose: 25.0 mg/kg/injection, schedule: Q01DX001 (ip), vehicle: saline with Tween-80 104 % of control | dose: 25.0 mg/kg/injection, schedule: Q04DX003 (ip), vehicle: saline with Tween-80 106 % of control | dose: 50.0 mg/kg/injection, schedule: Q01DX001 (ip), vehicle: saline with Tween-80 108 % of control | dose: 50.0 mg/kg/injection, schedule: Q04DX003 (ip), vehicle: saline with Tween-80 92 % of control

O=C(c1ccccc1)c1cc2ccccc2n1S(=O)(=O)c1ccccc1
inactive: [3] 95 % of control | [4] 98 % of control | dose: 400.0 mg/kg/injection, schedule: Q04DX002 (ip), vehicle: Klucel (hydroxypropylcellulose) (HPC) 95 % of control

COc1ccc(CN2CCCN(Cc3ccc(OC)cc3)C2c2cc(Br)c(OC)c(OC)c2)cc1
inactive: dose: 100.0 mg/kg/injection, schedule: Q01DX001 (ip), vehicle: acetone 94 % of control | dose: 200.0 mg/kg/injection, schedule: Q01DX001 (ip), vehicle: acetone 94 % of control | dose: 400.0 mg/kg/injection, schedule: Q01DX001 (ip), vehicle: acetone 94 % of control

CCC(O)C[As](=O)(O)c1ccc(Cl)cc1 (centres undefined)
inactive: dose: 1.56 mg/kg/injection, schedule: Q01DX009 (ip), vehicle: saline with Tween-80 97 % of control

CC(C)(C)C1=CC(=O)C(C(C)(C)C)=CC1=O
inactive: dose: 50.0 mg/kg/injection, schedule: Q01DX009 (ip), vehicle: saline with Tween-80 104 % of control | [5] 98 % of control | [6] 95 % of control

CC1(C)CC(OP(=O)(OC2CC(C)(C)N(O)C(C)(C)C2)OC2CC(C)(C)N(O)C(C)(C)C2)CC(C)(C)N1O
inactive: dose: 50.0 mg/kg/injection, schedule: Q01DX001 (ip), vehicle: water 104 % of control | dose: 100.0 mg/kg/injection, schedule: Q01DX001 (ip), vehicle: water 94 % of control and 97 % of control | dose: 200.0 mg/kg/injection, schedule: Q01DX001 (ip), vehicle: water 103 % of control | dose: 400.0 mg/kg/injection, schedule: Q01DX001 (ip), vehicle: water 113 % of control

OCCNc1ccc(I)cc1
inactive: [5] 90 % of control | [6] 92 % of control | dose: 400.0 mg/kg/injection, schedule: Q01DX009 (ip), vehicle: saline with Tween-80 87 % of control

CC1CCNCC1
inactive: dose: 100.0 mg/kg/injection, schedule: Q04DX002 (ip), vehicle: saline 105 % of control | dose: 200.0 mg/kg/injection, schedule: Q04DX002 (ip), vehicle: saline 102 % of control | dose: 400.0 mg/kg/injection, schedule: Q04DX002 (ip), vehicle: saline 94 % of control

O=C1CCCCCCC12CCCCC2
inactive: [7] 88 % of control | [8] 102 % of control | [9] 98 % of control | [10] 95 % of control | [11] 98 % of control | [12] 91 % of control

CC(=O)OCC(OC(C)=O)C(OC(C)=O)C(OC(C)=O)C(O)CO (centres undefined)
inactive: dose: 100.0 mg/kg/injection, schedule: Q04DX003 (ip), vehicle: saline 96 % of control | dose: 200.0 mg/kg/injection, schedule: Q04DX003 (ip), vehicle: saline 96 % of control | dose: 400.0 mg/kg/injection, schedule: Q04DX003 (ip), vehicle: saline 96 % of control

CCOC(C(=O)O)(c1ccccc1)c1ccccc1
inactive: [3] 97 % of control | [4] 97 % of control

CC1CCC2(O)C3(C)CC4(O)OC2(C1O)C1(O)C3(O)C(OC(=O)c2ccc[nH]2)C(O)(C(C)C)C41C (centres undefined)
inactive: dose: 0.25 mg/kg/injection, schedule: Q01DX001 (ip), vehicle: carboxymethylcellulose (CMC) 93 % of control

CCCCN=C=NCCCC
inactive: dose: 0.05 mg/kg/injection, schedule: Q01DX Z (ip), vehicle: saline 96 % of control | dose: 0.08 mg/kg/injection, schedule: Q01DX Z (ip), vehicle: saline 90 % of control | dose: 0.12 mg/kg/injection, schedule: Q01DX Z (ip), vehicle: saline 104 % of control | [1] 93 % of control | [2] 93 % of control

CC12CC/C(=N/NC(=O)Cc3c[nH]c4ccccc34)CC1CCC1C2CCC2(C)C(OC(=O)c3ccccc3)CCC12 (centres undefined)
inactive: dose: 100.0 mg/kg/injection, schedule: Q01DX001 (sc), vehicle: steriod suspending solution 101 % of control | dose: 100.0 mg/kg/injection, schedule: Q01DX009 (sc), vehicle: steriod suspending solution 104 % of control | dose: 200.0 mg/kg/injection, schedule: Q01DX001 (sc), vehicle: steriod suspending solution 100 % of control | dose: 200.0 mg/kg/injection, schedule: Q01DX009 (sc), vehicle: steriod suspending solution 104 % of control | dose: 400.0 mg/kg/injection, schedule: Q01DX001 (sc), vehicle: steriod suspending solution 111 % of control | dose: 400.0 mg/kg/injection, schedule: Q01DX009 (sc), vehicle: steriod suspending solution 102 % of control

CCOc1ccc(/C=C2\N=C(c3ccccc3)OC2=O)cc1OC
inactive: [7] 109 % of control | [9] 105 % of control | [11] 102 % of control

O=C(Oc1cc(OC(=O)c2ccccc2)cc(OC(=O)c2ccccc2)c1)c1ccccc1
inactive: [7] 95 % of control | [8] 100 % of control | [9] 95 % of control | [10] 100 % of control | [11] 95 % of control | [12] 100 % of control
